SMILES strings stand for the structures. Where two headings read alike, the source gives them in different places.

Holding throughout (assay): microbe, parasite or virus in culture
Holding throughout (assay type): cell-based

Test [1] relates to HCV 4a Rluc cells (NS5A chimeric genotype 1b Con1 replicon with genotype 4a NS5A gene). Conditions: Hepatitis C virus, read-out: 4a. An outline of the steps: (§1)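 Replicon cells stably carrying the listed RLuc-encoding dicistronic replicons were seeded and treated with DMSO serial dilutions of compound (10 mM stocks) diluted into culture medium. After 72 h, cells were lysed and Renilla luciferase activity measured. EC50 was derived by non-linear regression.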

Test [2] has as its system HCV 1b RLuc cells (dicistronic genotype 1b Con1 replicon, RLuc reporter). Conditions: Hepatitis C virus, read-out: 1b (nM). An outline of the steps:
(§2)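 Renilla luciferase HCV replicon cells: dicistronic 1b Con1, 1a H77 or 2a JFH-1 replicons, or a JFH-1 chimera carrying J6 NS5A (M31 present). Compound in DMSO serial dilutions, 72 h incubation, then lysis and luciferase read. EC50 by non-linear regression.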

Test [3] concerns HCV 2a JFH-1 Rluc cells (dicistronic genotype 2a JFH-1 replicon, RLuc reporter). Conditions: Hepatitis C virus, genotype 2a JFH-1 replicon, read-out: 2a JFH. The gist of the method:
as §2
On the technique in general: Replicon systems follow genome replication, usually without infectious particles.

Test [4] relates to HCV 3a RLuc cells (NS5A chimeric genotype 1b Con1 replicon with consensus genotype 3a NS5A gene). Conditions: Hepatitis C virus. An outline of the steps: as §1
Test [5] relates to HCV 1a RLuc cells (dicistronic genotype 1a H77 replicon, RLuc reporter). To be noted: Hepatitis C virus, read-out: 1a. The gist of the method: as §2
[6] abbreviates: read-out: 3a, Table 2, genotype 3a NS5A chimeric replicon.
Where [7] appears, read: 72 h, Table 2, genotype 1a H77 replicon, 72 hours.
The mark [8] stands for this setting: read-out: 3a, Table 1, genotype 3a NS5A chimeric replicon.
Setting [9] is: 72 h, Table 1, genotype 1a H77 replicon, 72 hours.
The mark [10] stands for this setting: read-out: 3a, genotype 3a NS5A chimeric 1b Con1 replicon.
The mark [11] stands for this setting: genotype 1a H77 replicon, RLuc reporter.
Where [12] appears, read: read-out: 3a, genotype 3a replicon.

`COC(=O)N[C@H](C(=O)N1CCC[C@H]1c1ncc(-c2ccc3c(c2)COc2cc(-c4ccc5nc([C@@H]6[C@H]7CC[C@H](C7)N6C(=O)[C@H](NC(=O)OC)c6ccccc6)[nH]c5c4)ccc2-3)[nH]1)C(C)C` [Example 94]: the EC50 in test [1] is 0.001 to 0.99 nM; in test [2] (72 h), 0.007 nM; in test [3] (72 h, Table 2, 72 hours), 0.001 to 0.999 nM; in test [4] (setting [6]) it was 0.001 to 0.99 nM; in test [5] (setting [7]) it was 0.001 to 0.999 nM.
`COC(=O)N[C@H](C(=O)N1CCC[C@H]1c1ncc(-c2ccc3c(c2)COc2c-3ccc3cc(-c4cnc([C@@H]5CCCN5C(=O)[C@H](NC(=O)OC)c5ccccc5)[nH]4)ccc23)[nH]1)[C@@H](C)OC` [Example 14]: the EC50 in test [1] was 0.001 to 0.99 nM; in test [2] (72 h) it was 0.01 nM; in test [3] (72 h, Table 1, 72 hours), 0.001 to 0.999 nM; in test [4] (setting [8]) it was 0.001 to 0.99 nM; in test [5] (setting [9]), 0.001 to 0.999 nM.
Regarding `COC(=O)N[C@H](C(=O)N1CCC[C@H]1c1ncc(-c2ccc3cc(-c4ccc(-c5cnc([C@@H]6CCCN6C(=O)[C@@H](NC(=O)OC)[C@@H](C)OC(C)(C)C)[nH]5)cc4)ccc3c2)[nH]1)C(C)C` [Example 265], the EC50 was 0.001 to 0.99 nM in test [1]; 0.042 nM in test [2]; 1 to 44 nM in test [3] (RLuc reporter); 1 to 4.99 nM in test [4] (setting [10]); 1 to 44 nM in test [5] (setting [11]).
Regarding `COC(=O)N[C@H](C(=O)N1CCC[C@H]1c1nc(-c2ccc3c(c2)C(F)(F)c2cc(-c4ccc5nc([C@@H]6CCCN6C(=O)[C@@H](NC(=O)OC)C6CCOCC6)[nH]c5c4)ccc2-3)c[nH]1)C(C)C` [Example 220], the EC50 in test [1] was 0.001 to 0.99 nM; in test [2], 0.011 nM; in test [3] (RLuc reporter), 0.001 to 0.999 nM; in test [4] (setting [10]), 1 to 4.99 nM; in test [5] (setting [11]) it was 0.001 to 0.999 nM.
With `COC(=O)N[C@H](C(=O)N1CCC[C@H]1c1ncc(-c2ccc3cc(-c4ccc(-c5cnc([C@@H]6[C@@H]7CC[C@@H](C7)N6C(=O)[C@@H](NC(=O)OC)C(C)C)[nH]5)cc4)ccc3c2)[nH]1)C(C)C` [Example 52], the EC50 in test [1] is 0.001 to 0.99 nM; in test [2] (72 h) it was 0.009 nM; in test [3] (72 h, Table 2, 72 hours), 1 to 44 nM; in test [4] (setting [6]), 1 to 4.99 nM; in test [5] (setting [7]), 0.001 to 0.999 nM.
For `COC(=O)N[C@H](C(=O)N1[C@@H]2CC[C@@H](C2)[C@H]1c1nc2ccc(-c3ccc4c(c3)C(F)(F)c3cc(-c5cnc([C@@H]6CCCN6C(=O)[C@H](NC(=O)OC)c6ccccc6)[nH]5)ccc3-4)cc2[nH]1)C1CCOCC1` [Example 57] the same measures were 0.001 to 0.99 nM, 0.009 nM, 0.001 to 0.999 nM, 0.001 to 0.99 nM and 0.001 to 0.999 nM.
Regarding `COC(=O)N[C@H](C(=O)N1CCC[C@H]1c1nc2c([nH]1)-c1ccc(-c3ccc4cc(-c5cnc([C@@H]6CCCN6C(=O)[C@H](NC(=O)CN6CCOCC6)c6ccccc6)[nH]5)ccc4c3)cc1CC2)C(C)C` [Example 245], the EC50 was 0.001 to 0.99 nM in test [1]; 0.017 nM in test [2]; 0.001 to 0.999 nM in test [3] (RLuc reporter); 0.001 to 0.99 nM in test [4] (setting [10]); 0.001 to 0.999 nM in test [5] (setting [11]).
`COC(=O)N[C@H](C(=O)N1CCC[C@H]1c1ncc(-c2ccc(-c3ccc4c(ccc5nc([C@@H]6CC7(CN6C(=O)[C@@H](NC(=O)OC)C6CCOCC6)OCCO7)[nH]c54)c3)cc2)[nH]1)C(C)C` [Example 91]: the EC50 in test [1] is 0.001 to 0.99 nM; in test [2] (72 h), 0.1 nM; in test [3] (72 h, Table 2, 72 hours), 0.001 to 0.999 nM; in test [4] (setting [6]) it was 1 to 4.99 nM; in test [5] (setting [7]) it was 0.001 to 0.999 nM.
For the compound `COC(=O)NC(C(=O)N1CCC[C@@H]1c1ncc(-c2cc3c4c(c2)OCc2cc(-c5cnc([C@@H]6CCCN6C(=O)[C@@H](NC(=O)OC)C(C)C)[nH]5)cc(c2-4)OC3)[nH]1)C(C)C` (stereo partly shown) [Example 10], the EC50 was 0.001 to 0.99 nM in test [1]; 0.406 nM in test [2] (72 h); 0.001 to 0.999 nM in test [3] (72 h, Table 1, 72 hours); 0.001 to 0.99 nM in test [4] (setting [8]); 1 to 44 nM in test [5] (setting [9]).
Regarding `COC(=O)N[C@H](C(=O)N1CCC[C@H]1c1ncc(-c2ccc(-c3ccc(-c4cnc([C@@H]5Cc6ccccc6N5C(=O)[C@@H](NC(=O)OC)C(C)C)[nH]4)cc3)cc2)[nH]1)C(C)C` [Example 266], the EC50 in test [1] was 0.001 to 0.99 nM; in test [2], 0.009 nM; in test [3] (RLuc reporter), 1 to 44 nM; in test [4] (setting [10]), 1 to 4.99 nM; in test [5] (setting [11]) it was 0.001 to 0.999 nM.
For `COC(=O)N[C@H](C(=O)N1CCC[C@H]1c1nc(-c2ccc3cc(-c4ccc(-c5cnc([C@@H]6CCCN6C(=O)[C@H](NC(=O)OC)c6ccccc6)[nH]5)cc4)sc3c2)c[nH]1)C(C)C` [Example 253] the same measures were 0.001 to 0.99 nM, 0.005 nM, 0.001 to 0.999 nM, 0.001 to 0.99 nM and 0.001 to 0.999 nM.
For `COC(=O)N[C@H](C(=O)N1CCC[C@H]1c1nc2c([nH]1)-c1ccc(-c3ccc4cc(-c5cnc([C@@H]6CCCN6C(=O)[C@H](NC(=O)OC)c6ccccc6)[nH]5)ccc4c3)cc1CC2)C1CCN(C(=O)OC(C)(C)C)CC1` [Example 270] the same measures were 0.001 to 0.99 nM, 0.032 nM, 0.001 to 0.999 nM, 0.001 to 0.99 nM and 0.001 to 0.999 nM.
In the case of `COC(=O)N[C@H](C(=O)N1CCC[C@H]1c1ncc(-c2ccc3cc(-c4ccc(-c5cnc([C@@H]6CCCN6C(=O)[C@@H](NC(=O)OC)[C@@H](C)OC)[nH]5)cc4)ccc3c2)[nH]1)C(C)C` [Example 240], the EC50 in test [1] is 0.001 to 0.99 nM; in test [2], 0.01 nM; in test [3] (RLuc reporter), 0.001 to 0.999 nM; in test [4] (setting [10]), 1 to 4.99 nM; in test [5] (setting [11]), 0.001 to 0.999 nM.
For `COC(=O)N[C@@H](C(=O)N1CCC[C@H]1c1ncc(-c2ccc3cc(-c4ccc5c(c4)CCc4nc([C@@H]6CCCN6C(=O)[C@@H](NC(=O)C6CC6)C6CCOCC6)[nH]c4-5)ccc3c2)[nH]1)c1ccccc1` [Example 280], the EC50 was 0.001 to 0.99 nM in test [1]; 0.047 nM in test [2]; 1 to 44 nM in test [3] (RLuc reporter); 0.001 to 0.99 nM in test [4] (setting [10]); 1 to 44 nM in test [5] (setting [11]).
Consider `COC(=O)N[C@H](C(=O)N1CCC[C@H]1c1ncc(-c2ccc3c(c2)CCc2cc(-c4ccc5nc([C@@H]6[C@H]7CC[C@H](C7)N6C(=O)[C@@H](NC(=O)OC)[C@@H](C)OC)[nH]c5c4)ccc2-3)[nH]1)[C@@H](C)OC` [Example 76], for which the EC50 in test [1] was 0.001 to 0.99 nM; in test [2] (72 h), 0.01 nM; in test [3] (72 h, Table 2, 72 hours), 1 to 44 nM; in test [4] (setting [6]) it was 1 to 4.99 nM; in test [5] (setting [7]) it was 0.001 to 0.999 nM.
For the compound `CC#Cc1cc(-c2cnc([C@@H]3CCCN3C(=O)[C@@H](NC(=O)OC)C(C)C)[nH]2)ccc1-c1ccc(-c2cnc([C@@H]3CCCN3C(=O)[C@H](NC(=O)OC)c3ccccc3)[nH]2)cc1` [Example 348], the EC50 was 0.001 to 0.99 nM in test [1]; 0.011 nM in test [2]; 0.001 to 0.999 nM in test [3]; 0.001 to 0.99 nM in test [4] (setting [12]); 0.001 to 0.999 nM in test [5] (genotype 1a replicon).
As to `COC(=O)N[C@H](C(=O)N1CCC[C@H]1c1nc2ccc3cc(-c4ccc(-c5cnc([C@@H]6CCCN6C(=O)[C@H](NC(=O)OC)c6ccccc6)[nH]5)cc4C#CC4CC4)ccc3c2[nH]1)C(C)C` [Example 351], the EC50 is 0.001 to 0.99 nM in test [1]; 0.008 nM in test [2]; 0.001 to 0.999 nM in test [3]; 0.001 to 0.99 nM in test [4] (setting [12]); 0.001 to 0.999 nM in test [5] (genotype 1a replicon).

Values taken from US10344019B2 (priority 2010, dated 2019).
